# Test results: PMC5458078, “Global mapping of CARM1 substrates defines enzyme specificity and substrate recognition” (Nature Communications, 2017)
# Like-named read-outs stand apart in the source and are kept apart here.
# Legend:
# MCF7 CARM1 KO cells = assay: Quantitative MS of ADMA-containing peptides in MCF7 CARM1 KO cells expressing CARM1 28-608 or CARM1 140-608, and in CARM1 KO; format: cell-based, human
# MCF7 cells = assay: Quantitative nanoLC-MS/MS (TMT) of ADMA-containing peptides, CARM1 KO vs parental; format: cell-based, human; parameters: Fold change KO/WT: scale not given here
# [1] = ratio on log2 scale, mean of 3 replicates
# [2] = MCF7, CARM1 knockout vs wild type, n = 3 each
# [3] = CARM1 140-608 versus WT, mean of three replicates (log2)
# [4] = KO versus WT, mean of three replicates (log2)
# [5] = ADMA-containing peptide, CARM1 knockout (KO) vs wild type (WT) MCF7 cells, 6-plex TMT experiment #1, three biological replicates each, sheet "MCF7"
# [6] = difference of log2 means, CARM1 140-608 vs WT
# [7] = difference of log2 means, KO vs WT
# [8] = mean, CARM1 140-608 versus WT (log2 scale)
# [9] = mean, CARM1 KO versus WT (log2 scale)
# [10] = MCF7 CARM1 knockout vs wild type, 3 biological replicates each, values are on log2 scale
# [11] = log2 scale ratio, mean of n = 3
# [12] = ADMA-containing peptide, MCF7, CARM1 knockout (KO1-3) vs wild type (WT1-3), TMT 6-plex experiment #1
# [13] = CARM1 140-608 versus WT, difference of mean log2 values
# [14] = CARM1 KO versus WT, difference of mean log2 values
# [15] = CARM1 KO vs wild type MCF7 cells, 3 biological replicates each
# [16] = CARM1 140-608 vs WT, mean of 3 replicates (log2 scale)
# [17] = KO vs WT, mean of 3 replicates (log2 scale)
# [18] = MCF7, CARM1 KO (KO1-KO3) vs wild type (WT1-WT3)
substance,measurement,setting,value
CAGFLEPTWLAAPPrLARPPR,CARM1 140-608/WT,MCF7 CARM1 KO cells; [1],-0.2739
same,KO/WT,MCF7 CARM1 KO cells; [1],-1.902
same,Fold change KO/WT,MCF7 cells; [2],-1.902
LQGQQFLNQSrQALELK,CARM1 140-608/WT,MCF7 CARM1 KO cells; [3],0.6173
same,KO/WT,MCF7 CARM1 KO cells; [4],-0.8589
same,Fold change KO/WT,MCF7 cells; [5],-1.9617
LHPQLHrAPIR,CARM1 140-608/WT,MCF7 CARM1 KO cells; [3],-0.07051
same,KO/WT,MCF7 CARM1 KO cells; [4],1.076
same,Fold change KO/WT,MCF7 cells; [5],1.076
SKPQLArYLGGSMDLSTFDFR,CARM1 140-608/WT,MCF7 CARM1 KO cells; [6],-0.3331
same,KO/WT,MCF7 CARM1 KO cells; [7],-0.5289
same,Fold change KO/WT,MCF7 cells; [5],-0.3057
LYrYSPQSFLPDSTIQK,CARM1 140-608/WT,MCF7 CARM1 KO cells; [8],-2.17
same,KO/WT,MCF7 CARM1 KO cells; [9],-2.857
same,Fold change KO/WT,MCF7 cells; [10],-2.857
AFSSrSYTSGPGSrISSSSFSR,CARM1 140-608/WT,MCF7 CARM1 KO cells; [6],-1.259
same,KO/WT,MCF7 CARM1 KO cells; [7],-1.022
same,Fold change KO/WT,MCF7 cells; [10],-1.022
DGLTPVPPLAPAPrPPSSGLPAVLNPrPTLTPGrLPTPTLGTArAPMPTPTLVrPLLK,CARM1 140-608/WT,MCF7 CARM1 KO cells; [11],-0.2727
same,KO/WT,MCF7 CARM1 KO cells; [11],-4.325
same,Fold change KO/WT,MCF7 cells; [12],-3.645
VIGTAVArYNFAAR,CARM1 140-608/WT,MCF7 CARM1 KO cells; [13],-1.8723
same,KO/WT,MCF7 CARM1 KO cells; [14],-2.89
same,Fold change KO/WT,MCF7 cells; [15],-2.89
LAQDPYrLGHDPYR,CARM1 140-608/WT,MCF7 CARM1 KO cells,-0.7785
same,KO/WT,MCF7 CARM1 KO cells,-0.6293
same,Fold change KO/WT,MCF7 cells; [12],-0.6293
MGAGMGFGLErMAAPIDR,CARM1 140-608/WT,MCF7 CARM1 KO cells; [8],-2.085
same,KO/WT,MCF7 CARM1 KO cells; [9],-3.039
same,Fold change KO/WT,MCF7 cells; [10],-3.039
KPLPLGVrAPLAGPSAAAR,CARM1 140-608/WT,MCF7 CARM1 KO cells; [16],-2.373
same,KO/WT,MCF7 CARM1 KO cells; [17],-2.562
same,Fold change KO/WT,MCF7 cells; [18],-2.562
LLFQNLWKPrLNVP,CARM1 140-608/WT,MCF7 CARM1 KO cells; [1],-1.893
same,KO/WT,MCF7 CARM1 KO cells; [1],-4.858
same,Fold change KO/WT,MCF7 cells; [2],-4.157
VGVPTAVQNLAPrAAVAAAAPrAVAPYK,CARM1 140-608/WT,MCF7 CARM1 KO cells; [3],0.2214
same,KO/WT,MCF7 CARM1 KO cells; [4],-3.003
same,Fold change KO/WT,MCF7 cells; [5],-3.907
APGPrGSYLGGYSAGR,CARM1 140-608/WT,MCF7 CARM1 KO cells; [16],-0.09328
same,KO/WT,MCF7 CARM1 KO cells; [17],-0.2416
same,Fold change KO/WT,MCF7 cells; [18],-0.1976
EYFIPGTrLPPPTHGPQEYPPPPAVR,CARM1 140-608/WT,MCF7 CARM1 KO cells; [6],0.04953
same,KO/WT,MCF7 CARM1 KO cells; [7],-1.295
same,Fold change KO/WT,MCF7 cells; [5],-1.126
TRNPFLTGLSAPSPTNPFGAGEPGrPTLNQMR,CARM1 140-608/WT,MCF7 CARM1 KO cells; [1],-1.179
same,KO/WT,MCF7 CARM1 KO cells; [1],-1.766
same,Fold change KO/WT,MCF7 cells; [2],-1.766
GAPHFrFIIAGR,CARM1 140-608/WT,MCF7 CARM1 KO cells; [11],-0.6361
same,KO/WT,MCF7 CARM1 KO cells; [11],-0.5643
same,Fold change KO/WT,MCF7 cells; [12],-0.1995
TPTATTSGIrATLTPTVLAPrLPQPPQNPTNIQNFQLPPGMVLVR,CARM1 140-608/WT,MCF7 CARM1 KO cells; [11],0.4964
same,KO/WT,MCF7 CARM1 KO cells; [11],-3.04
same,Fold change KO/WT,MCF7 cells; [12],-3.04
TPLLGDGPrAPFNQEGQSTGPPPLIPGLGQQGAQGR,CARM1 140-608/WT,MCF7 CARM1 KO cells; [13],-4.072
same,KO/WT,MCF7 CARM1 KO cells; [14],-5.54
same,Fold change KO/WT,MCF7 cells; [15],-4.991
QLrMQLQQrLQGQQFLNQSrQALELK,CARM1 140-608/WT,MCF7 CARM1 KO cells; [3],-3.52
same,KO/WT,MCF7 CARM1 KO cells; [4],-6.321
same,Fold change KO/WT,MCF7 cells; [5],-3.961
KPLGTAPHCPrLPLRK,CARM1 140-608/WT,MCF7 CARM1 KO cells; [8],-2.5902
same,KO/WT,MCF7 CARM1 KO cells; [9],-4.08
same,Fold change KO/WT,MCF7 cells; [2],-4.08
ISSSSFSrVGSSNFR,CARM1 140-608/WT,MCF7 CARM1 KO cells,-2.763
same,KO/WT,MCF7 CARM1 KO cells,-3.151
same,Fold change KO/WT,MCF7 cells; [10],-3.151
FEGPQGQLGGGCPLrFEGPPGPVGTPLrFEGPIGQAGGGGFR,CARM1 140-608/WT,MCF7 CARM1 KO cells; [3],1.054
same,KO/WT,MCF7 CARM1 KO cells; [4],-2.35
same,Fold change KO/WT,MCF7 cells; [5],-2.35
RPPTPGPDTSVSGPrLTLALAPGPPPPPSR,CARM1 140-608/WT,MCF7 CARM1 KO cells; [6],-1.4
same,KO/WT,MCF7 CARM1 KO cells; [7],-1.877
same,Fold change KO/WT,MCF7 cells; [5],-1.877
MGLLSPSGIGGVSPrHALTSPSLGGQGR,CARM1 140-608/WT,MCF7 CARM1 KO cells; [16],-0.809
same,KO/WT,MCF7 CARM1 KO cells; [17],-1.616
same,Fold change KO/WT,MCF7 cells; [18],-1.616
FGGPVHHQAQrFR,CARM1 140-608/WT,MCF7 CARM1 KO cells; [1],-0.8111
same,KO/WT,MCF7 CARM1 KO cells; [1],-0.6051
same,Fold change KO/WT,MCF7 cells; [2],-0.6051
GGGSGNFMGrGGNFGGGGGNFGrGGNFGGrGGYGGGGGGSR,CARM1 140-608/WT,MCF7 CARM1 KO cells; [8],-0.1884
same,KO/WT,MCF7 CARM1 KO cells; [9],-0.008363
same,Fold change KO/WT,MCF7 cells; [2],-0.1359
LSAETWDLLrLPLER,CARM1 140-608/WT,MCF7 CARM1 KO cells; [8],-2.21
same,KO/WT,MCF7 CARM1 KO cells; [9],-3.314
same,Fold change KO/WT,MCF7 cells; [2],-3.314
VGVPPQNPrPSLNSAPSPFNPQGQSQITDPR,CARM1 140-608/WT,MCF7 CARM1 KO cells; [16],-2.085
same,KO/WT,MCF7 CARM1 KO cells; [17],-2.569
same,Fold change KO/WT,MCF7 cells; [18],-2.569
TSSGLFPrIPLQPQAPVSSIGSPVGTPK,CARM1 140-608/WT,"MCF7 CARM1 KO cells; CARM1 140-608 vs WT, mean of 3 replicates, log2",0.8175
same,KO/WT,"MCF7 CARM1 KO cells; KO vs WT, mean of 3 replicates, log2",-2.603
same,Fold change KO/WT,"MCF7 cells; MCF7, CARM1 KO vs WT, three biological replicates each",-2.869
VQTHLENPTrYHLQQAR,CARM1 140-608/WT,MCF7 CARM1 KO cells; [11],-1.396
same,KO/WT,MCF7 CARM1 KO cells; [11],-1.173
same,Fold change KO/WT,MCF7 cells; [12],-1.173
NELIArYIK,CARM1 140-608/WT,MCF7 CARM1 KO cells; [11],-0.332
same,KO/WT,MCF7 CARM1 KO cells; [11],-0.02143
same,Fold change KO/WT,MCF7 cells; [12],0.1085
GVVDSDDLPLNVSr,CARM1 140-608/WT,MCF7 CARM1 KO cells; [8],-0.04605
same,KO/WT,MCF7 CARM1 KO cells; [9],-1.284
same,Fold change KO/WT,MCF7 cells; [10],-0.9856
EVVrYLGGSGGAGGR,CARM1 140-608/WT,MCF7 CARM1 KO cells; [16],-0.0149
same,KO/WT,MCF7 CARM1 KO cells; [17],0.2966
same,Fold change KO/WT,MCF7 cells; [18],0.2966
